Experimental data: patent US20250032581A1, “COMPOSITIONS AND ARTICLES COMPRISING AN ADNF POLYPEPTIDE” (RAMOT AT TEL-AVIV UNIVERSITY LTD., priority 2021, published 2025)

How the values were obtained:
Tau, tubulin = assay: Polymerized vs. soluble tubulin assay; format: cell-based, mouse; settings: zinc 400 μM, 4 h, peptide 10^−12M
Method: Polymerized vs. soluble tubulin assay—To quantify tubulin polymerization and Tau-MT association, a simple assay was performed as previously described. The cells grown to confluence in six-well plates were washed with MT buffer (80 mM PIPES pH 6.8, 1 mM MgCl^2, 2 mM EGTA, 5% Glycerol) and lysed at room temperature for 5 min through centrifugation (300 g), with 150 μl of MT buffer with 0.5% Triton X-100 to extract soluble (cytosolic) tubulin (S). The pelleted cells were rinsed once again with an equal volume of modified RIPA lysis buffer (50 mM Tris-HCL pH 7.4, 150 mM NaCl, 2 mM EGTA, 1% Triton X-100, 0. 1% SDS, 0.1% sodium Deoxycholate) to collect the polymerized (cytoskeletal) tubulin (P). The cytosolic and cytoskeletal fractions were each mixed with sample buffer and heated at 95° C. for 5 min. An equal volume of each fraction was analyzed by immunoblotting with Tau, tubulin and actin antibodies, and the results following ECL development were quantified by densitometry (GelQuant.NET software provided by biochemlabsolutions(dot)com).
It is known that in the presence of extracellular zinc NAP protects MT against degradation by promoting Tau binding to the MT shaft. Polymerized vs. soluble tubulin assay was effected to compare protective activities of NAP and SKIP against MT degradation and Tau-MT dissociation (FIGS. 11F-G). After treatments with zinc (400 μM, 4 h) with and without NAP or SKIP (10^−12M, 4 h) the cellular-tubulin pool was separated into polymerized and soluble tubulin fractions. The amount of Tau, tubulin, and actin was identified by immunoblotting (FIG. 11F), followed by densitometric quantification (FIG. 11G).

BTBR mouse = assay: Social recognition in the BTBR mouse; format: in vivo
[1] = test system: Shank3-Adnp-actin interactions; assay: Actin co-immunoprecipitations from mouse brain extracts
From the text: De novo heterozygous mutations in ADNP reproduced the autistic ADNP syndrome. ADNP mutations impair microtubule (MT) function, essential for synaptic activity. The ADNP MT-associating fragment NAPVSIPQ (NAP) (SEQ ID NO 2) contains an MT end-binding protein interacting domain, SxIP (mimicking the active-peptide, SKIP, SEQ ID NO 21). The inventors hypothesized that not all ADNP mutations are similarly deleterious and that the NAPV portion of NAPVSIPQ is biologically active. Using the eukaryotic linear motif (ELM) resource, the inventors identified a Src homology 3 (SH3) domain-ligand association site in NAP responsible for controlling signaling pathways regulating the cytoskeleton, namely NAPVSIP (SEQ ID NO: 2). Altogether, the inventors mapped multiple SH3-binding sites in ADNP. […] Site-directed-mutagenesis, abolishing the p.Lys408Valfs*31 SH3-binding motif, produced MT toxicity. […] Lastly, SH3 and multiple ankyrin repeat domains protein 3 (SHANK3), a major autism gene product, interact with the cytoskeleton through an actin-binding motif to modify behavior.

ADNP^+/− MOUSE = test system: ADNP^+/− MOUSE; parameters: key: corrections by NAP treatment (+); settings: Adnp+/− mouse (second symbol); cited from earlier work

In the case of CC[C@H](C)[C@H](NC(=O)[C@H](CO)NC(=O)[C@@H](NC(=O)[C@@H]1CCCN1C(=O)[C@H](C)NC(=O)[C@@H](N)CC(N)=O)C(C)C)C(=O)N1CCC[C@H]1C(=O)N[C@@H](CCC(N)=O)C(=O)O [NAP, NAPVSIPQ], the “protection against Tau dissociation from MTs (soluble Tau ratio)” value (Tau, tubulin) was “only NAP exhibited protection against Tau dissociation from MTs”, the “protection of polymerized tubulin against zinc” value (Tau, tubulin) was “protected against zinc-induced decay” and the social recognition (BTBR mouse) was “preference of the mouse, rather than the cup=object chamber”. The Shank3-Adnp-actin interactions [1] was “NAP-mediated normalization of Shank3-Adnp-actin interactions” and the “NAP efficacy: visual evoked potential/axonal transport” value (ADNP^+/− MOUSE) was “+/+”.
